Test results as given in patent US12258336B2, “Preparation of seimicarbazide-sensitive amine oxidase inhibitor and use thereof” (SHANGHAI ENNOVABIO PHARMACEUTICALS CO., LTD., priority 2018, dated 2025).

Molecular target: T1, Recombinant human AOC1/DAO protein (Homo sapiens, UniProt P19801)
T1 construct: purchased R&D systems 8298-AO
T1 sequence (P19801 20-751): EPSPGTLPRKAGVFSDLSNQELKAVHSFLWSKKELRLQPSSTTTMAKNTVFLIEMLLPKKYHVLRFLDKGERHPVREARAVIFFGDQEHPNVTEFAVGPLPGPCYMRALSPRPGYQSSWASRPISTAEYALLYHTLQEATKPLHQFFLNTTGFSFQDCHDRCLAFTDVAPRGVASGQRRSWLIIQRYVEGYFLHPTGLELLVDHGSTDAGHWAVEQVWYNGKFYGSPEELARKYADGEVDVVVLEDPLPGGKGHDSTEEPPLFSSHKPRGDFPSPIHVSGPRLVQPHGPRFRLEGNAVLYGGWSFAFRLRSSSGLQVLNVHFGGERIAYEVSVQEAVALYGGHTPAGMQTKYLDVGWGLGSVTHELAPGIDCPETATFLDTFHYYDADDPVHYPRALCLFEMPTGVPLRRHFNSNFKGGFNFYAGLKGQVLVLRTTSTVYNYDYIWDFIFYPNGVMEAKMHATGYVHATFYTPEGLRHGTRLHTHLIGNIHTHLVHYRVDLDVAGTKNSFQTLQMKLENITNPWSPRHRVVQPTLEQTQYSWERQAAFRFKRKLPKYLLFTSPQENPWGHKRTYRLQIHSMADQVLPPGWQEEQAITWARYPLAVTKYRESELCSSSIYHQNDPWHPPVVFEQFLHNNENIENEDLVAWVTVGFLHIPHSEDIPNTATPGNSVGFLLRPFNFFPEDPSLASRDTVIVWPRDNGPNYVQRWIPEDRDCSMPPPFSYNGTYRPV
Assay: Inhibitory activity on AOC1 (Amplex UltraRed)
Assay type: biochemical
Experimental: Recombinant human AOC1/DAO protein was purchased from R&D systems (Cat: 8298-AO). Amplex UltraRed was purchased from Thermo scientific (Cat: A36006). HRP (Cat: P8250) and Putrescine (Cat: V900377) were purchased from Sigma. Enzyme reaction buffer (50 mM HEPES, 120 mM NaCl, 5 mM KCl, 2 mM CaCl2, 1.4 mM MgCl2, 0.001% Tween-20, pH7.4) was prepared. Test compound was dissolved in DMSO and diluted by 3-fold concentration in gradient. The final concentration of test compound in 10 μL reaction system was 100 μM to 5 nM when AOC1 was detected. The content of DMSO in detection reaction was 1%. After the solution of test compound in DMSO was diluted in the enzyme reaction buffer at a volume ratio of 1:25, 10 μL of mixture was added to each well of detection plate. 4× substrate mixture (containing 400 μM Putrescine, 4 U/mL HRP, 4 μM Amplex UltraRed) was prepared in the enzyme reaction buffer, 10 μL of which was added to each well. 20 μL of AOC1 protein diluted in enzyme reaction buffer was added to each well at final concentration 0.4 nM in 40 μL reaction system. Synergy Neo 2 was used to read the plate for detection. The instrument was set at 30° C., 530 nm excitation wavelength, 590 nm emission wavelength. Detection was conducted once every minute for 30 minutes continuously. The enzyme activity was calculated based on the increased signal of each well from the 10th minute to the 30th minute. The value was converted into inhibition rate by the following formula Inhibition rate=(Signalpositive−Signaltest)/(Signalpositive−Signalnegative)×100%
Signalpositive was positive control without test compound. Signalnegative was negative control without test compound and AOC1, and Signaltest was detection value of different compounds at each concentration. IC50 value was calculated by using 4 parameter curve fitting.

| SMILES | IC50 |
| --- | --- |
| COC1CC2CC1CN2c1ncc(OC/C(=C/F)CN)cn1 (centres unmarked) [Example 2] | 0.1 to 10 µM |
| NC/C(=C\F)COc1cnc(N2CCN(c3cnc(N4CCN(C5COC5)CC4)nc3)CC2)nc1 [Example 9] | 0.1 to 10 µM |
| N#Cc1cc(OC/C(=C/F)CN)cnc1N1CCN(C2COC2)CC1 [Example 7] | > 10 µM |
| CC1(C)CN(c2ncc(OC/C(=C/F)CN)cn2)CCN1C1COC1 [Example 10] | > 10 µM |
| NC/C(=C\F)COc1cnc(N2CC3CCC(C2)N3C2COC2)nc1 [Example 6] | > 10 µM |
| NC/C(=C\F)COc1cnc(N2CCC3(CC2)COC3)nc1 [Example 3] | 0.1 to 10 µM |
| CC1(C)CN(C2COC2)CCN1c1ncc(OC/C(=C/F)CN)cn1 [Example 5] | > 10 µM |
| NC/C(=C\F)COc1cnc(N2CCN(C3COC3)CC2)nc1 [Example 4, (E)-3-fluoro-2-(((2-(4-(oxbutan-3-yl)piperazin-1-yl)pyrimidin-5-yl)oxo)methyl)prop-2-en-1-amine] | > 10 µM |
| COC1CC2CCC(C1)N2c1ncc(OC/C(=C/F)CN)cn1 (centres unmarked) [Example 12] | > 10 µM |
| CC1CN(c2ncc(OC/C(=C/F)CN)cn2)CC(C)N1C1COC1 (centres unmarked) [Example 1, (E)-2-(((2-(3,5-dimethyl-4-(oxbutan-3-yl)piperazin-1-yl)pyrimidin-5-yl)oxo)methyl)-3-fluoroprop-2-en-1-amine] | > 10 µM |
| NC/C(=C/F)COc1cnc(N2CCN(C3COC3)CC2)nc1 [Example 8] | > 10 µM |
